For 4 cell lines, relative viability results are on record in the supplement of paper PMC10307832.

What all share (experiment): relative viability (nuclei count vs DMSO), 5 days (fraction); higher = more cells survive
Compound in the assay “KN-93 + Olaparib”: CN(C/C=C/C1=CC=C(C=C1)Cl)CC2=CC=CC=C2N(CCO)S(=O)(=O)C3=CC=C(C=C3)OC [KN-93] + O=C(c1cc(Cc2n[nH]c(=O)c3ccccc23)ccc1F)N1CCN(C(=O)C2CC2)CC1 [Olaparib] (partner 8 µM)
Put shortly: (§1)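 Lung cancer cell lines, seeded in 1536-well plates, were treated the following day by pin tool with a single drug or with five library-drug doses (not always all listed) in √10 steps on top of a fixed anchor-drug dose. Cells were fixed and nuclei stained in one step after 5 days, and nuclei were counted. Relative viability is the nuclei count for treated wells divided by that for vehicle wells, reported as medians of duplicate plates.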

Compound in the assay “KN-93 + Dasatinib”: CN(C/C=C/C1=CC=C(C=C1)Cl)CC2=CC=CC=C2N(CCO)S(=O)(=O)C3=CC=C(C=C3)OC [KN-93] + Cc1nc(Nc2ncc(C(=O)Nc3c(C)cccc3Cl)s2)cc(N2CCN(CCO)CC2)n1 [Dasatinib] (partner 0.075 µM)
A digest of the protocol: as §1

Compound in the assay “KN-93 + Foretinib”: CN(C/C=C/C1=CC=C(C=C1)Cl)CC2=CC=CC=C2N(CCO)S(=O)(=O)C3=CC=C(C=C3)OC [KN-93] + COc1cc2c(Oc3ccc(NC(=O)C4(C(=O)Nc5ccc(F)cc5)CC4)cc3F)ccnc2cc1OCCCN1CCOCC1 [Foretinib] (partner 0.25 µM)
A digest of the protocol: as §1

Compound in the assay “KN-93 + Decitabine”: CN(C/C=C/C1=CC=C(C=C1)Cl)CC2=CC=CC=C2N(CCO)S(=O)(=O)C3=CC=C(C=C3)OC [KN-93] + Nc1ncn([C@H]2C[C@H](O)[C@@H](CO)O2)c(=O)n1 [Decitabine] (partner 2 µM)
Put shortly:
as §1

Compound in the assay “KN-93 + Navitoclax”: CN(C/C=C/C1=CC=C(C=C1)Cl)CC2=CC=CC=C2N(CCO)S(=O)(=O)C3=CC=C(C=C3)OC [KN-93] + CC1(C)CCC(c2ccc(Cl)cc2)=C(CN2CCN(c3ccc(C(=O)NS(=O)(=O)c4ccc(N[C@H](CCN5CCOCC5)CSc5ccccc5)c(S(=O)(=O)C(F)(F)F)c4)cc3)CC2)C1 [Navitoclax] (partner 0.5 µM)
Put shortly:
as §1

As to BEN, the relative viability with KN-93 + Olaparib (first compound 0.08 µM) was found to be 1.13; in the assay with KN-93 + Olaparib (first compound 0.253 µM) it was 1.19; with KN-93 + Olaparib (first compound 2.53 µM), 1.06; with KN-93 + Olaparib (first compound 8 µM) it was 0.713; with KN-93 + Dasatinib (first compound 0.08 µM), 0.307; with KN-93 + Dasatinib (first compound 0.253 µM), 0.319. The relative viability in the assay with KN-93 + Dasatinib (first compound 2.53 µM) stood at 0.307; with KN-93 + Dasatinib (first compound 8 µM) it was 0.266; with KN-93 + Foretinib (first compound 0.08 µM), 0.917; in the assay with KN-93 + Foretinib (first compound 0.253 µM), 0.599; in the assay with KN-93 + Foretinib (first compound 2.53 µM), 0.714; in the assay with KN-93 + Foretinib (first compound 8 µM), 0.455. The relative viability is 0.74 with KN-93 + Decitabine (first compound 0.08 µM); 0.758 with KN-93 + Decitabine (first compound 0.253 µM); 0.926 with KN-93 + Decitabine (first compound 2.53 µM); 0.537 with KN-93 + Decitabine (first compound 8 µM); 0.062 with KN-93 + Navitoclax (first compound 0.253 µM); 0.0593 in the assay with KN-93 + Navitoclax (first compound 2.53 µM). Also, in the assay with KN-93 + Navitoclax (first compound 8 µM), the relative viability worked out at 0.0709.
For the cell line NCI-H727, the relative viability in the assay with KN-93 + Olaparib (first compound 0.08 µM) came to 0.69; with KN-93 + Olaparib (first compound 2.53 µM), 0.744; in the assay with KN-93 + Olaparib (first compound 8 µM), 0.738; with KN-93 + Dasatinib (first compound 0.08 µM) it was 0.44; in the assay with KN-93 + Dasatinib (first compound 0.253 µM), 0.399; in the assay with KN-93 + Dasatinib (first compound 2.53 µM), 0.415. Moreover, the relative viability with KN-93 + Dasatinib (first compound 8 µM) was found to be 0.237; in the assay with KN-93 + Foretinib (first compound 0.08 µM), 1.04; with KN-93 + Foretinib (first compound 0.253 µM), 0.945; with KN-93 + Foretinib (first compound 2.53 µM) it was 0.863; with KN-93 + Foretinib (first compound 8 µM) it was 0.553; with KN-93 + Decitabine (first compound 0.08 µM), 0.795. Moreover, the relative viability in the assay with KN-93 + Decitabine (first compound 2.53 µM) came to 0.816; in the assay with KN-93 + Decitabine (first compound 8 µM), 0.827; in the assay with KN-93 + Navitoclax (first compound 0.08 µM), 0.464; with KN-93 + Navitoclax (first compound 0.253 µM), 0.4; with KN-93 + Navitoclax (first compound 2.53 µM) it was 0.285; with KN-93 + Navitoclax (first compound 8 µM) it was 0.17.
Consider NCI-H1975, for which the relative viability in the assay with KN-93 + Olaparib (first compound 0.08 µM) came to 0.534; in the assay with KN-93 + Olaparib (first compound 0.253 µM) it was 0.839; with KN-93 + Olaparib (first compound 2.53 µM) it was 0.826; in the assay with KN-93 + Olaparib (first compound 8 µM), 0.456; with KN-93 + Dasatinib (first compound 0.08 µM), 0.339; in the assay with KN-93 + Dasatinib (first compound 0.253 µM), 0.336. The relative viability was determined as 0.351 in the assay with KN-93 + Dasatinib (first compound 2.53 µM); 0.224 with KN-93 + Dasatinib (first compound 8 µM); 0.848 in the assay with KN-93 + Foretinib (first compound 0.08 µM); 1.11 with KN-93 + Foretinib (first compound 0.253 µM); 0.972 with KN-93 + Foretinib (first compound 2.53 µM); 0.475 with KN-93 + Foretinib (first compound 8 µM). The relative viability in the assay with KN-93 + Decitabine (first compound 0.08 µM) is 0.389; with KN-93 + Decitabine (first compound 0.253 µM), 0.361; with KN-93 + Decitabine (first compound 2.53 µM) it was 0.412; with KN-93 + Decitabine (first compound 8 µM) it was 0.272; with KN-93 + Navitoclax (first compound 0.08 µM), 0.797; in the assay with KN-93 + Navitoclax (first compound 0.253 µM), 1.36. In addition, the relative viability came out at 1.26 with KN-93 + Navitoclax (first compound 2.53 µM) and 0.756 with KN-93 + Navitoclax (first compound 8 µM).
In the case of NCI-H23, the relative viability with KN-93 + Olaparib (first compound 0.08 µM) stood at 0.3; in the assay with KN-93 + Olaparib (first compound 0.253 µM), 0.251; with KN-93 + Olaparib (first compound 2.53 µM), 0.407; with KN-93 + Olaparib (first compound 8 µM), 0.233; in the assay with KN-93 + Dasatinib (first compound 0.08 µM) it was 0.64; with KN-93 + Dasatinib (first compound 0.253 µM), 0.84. In addition, the relative viability came out at 0.818 with KN-93 + Dasatinib (first compound 2.53 µM); 0.439 in the assay with KN-93 + Dasatinib (first compound 8 µM); 0.935 in the assay with KN-93 + Foretinib (first compound 0.08 µM); 1.13 with KN-93 + Foretinib (first compound 0.253 µM); 1.1 with KN-93 + Foretinib (first compound 2.53 µM); 0.666 with KN-93 + Foretinib (first compound 8 µM). In addition, the relative viability with KN-93 + Decitabine (first compound 0.08 µM) was determined as 0.849; in the assay with KN-93 + Decitabine (first compound 0.253 µM) it was 0.306; with KN-93 + Decitabine (first compound 2.53 µM) it was 0.296; with KN-93 + Decitabine (first compound 8 µM) it was 0.288; with KN-93 + Navitoclax (first compound 0.08 µM), 0.721; with KN-93 + Navitoclax (first compound 0.253 µM), 0.988. Besides, the relative viability in the assay with KN-93 + Navitoclax (first compound 2.53 µM) is 0.933; with KN-93 + Navitoclax (first compound 8 µM), 0.816.
